{"source": "paper PMC10924921", "about": "“Mi-2β promotes immune evasion in melanoma by activating EZH2 methylation” (Nature Communications, 2024)", "assay_in_all_cases": "biochemical", "design_in_all_cases": "KINOMEscan active-site competition binding panel (468 kinase assays), per cent of control at 1000 nM", "details_in_all_cases": "KINOMEscan per cent of control (binding competition); read-out: Percent Control", "key": {"[1]": {"biological_target": "T1, ABL1(F317I)-nonphosphorylated (Homo sapiens, UniProt P00519, F317I)", "T1 construct": "nonphosphorylated", "from_the_text": "(§1) Figure S7 / Percent Control"}, "BRSK1": {"biological_target": "BRSK1 (Homo sapiens, UniProt Q8TDC3)", "from_the_text": "as §1"}, "CAMKK1": {"biological_target": "CAMKK1 (Homo sapiens, UniProt Q8N5S9)", "from_the_text": "as §1"}, "CDC2L5": {"biological_target": "T2, CDC2L5 (Homo sapiens, UniProt Q14004)", "T2 construct": "gene CDK13", "from_the_text": "as §1"}, "DAPK1": {"biological_target": "DAPK1 (Homo sapiens, UniProt P53355)", "from_the_text": "as §1"}, "GRK2": {"biological_target": "GRK2 (Homo sapiens, UniProt P25098)", "from_the_text": "as §1"}, "JNK3": {"biological_target": "T3, JNK3 (Homo sapiens, UniProt P53779)", "T3 construct": "gene MAPK10", "from_the_text": "as §1"}, "LRRK2(G2019S)": {"biological_target": "LRRK2(G2019S) (Homo sapiens, UniProt Q5S007, G2019S)", "from_the_text": "as §1"}, "MAPKAPK5": {"biological_target": "MAPKAPK5 (Homo sapiens, UniProt Q8IW41)", "sequence (Q8IW41 whole entry)": "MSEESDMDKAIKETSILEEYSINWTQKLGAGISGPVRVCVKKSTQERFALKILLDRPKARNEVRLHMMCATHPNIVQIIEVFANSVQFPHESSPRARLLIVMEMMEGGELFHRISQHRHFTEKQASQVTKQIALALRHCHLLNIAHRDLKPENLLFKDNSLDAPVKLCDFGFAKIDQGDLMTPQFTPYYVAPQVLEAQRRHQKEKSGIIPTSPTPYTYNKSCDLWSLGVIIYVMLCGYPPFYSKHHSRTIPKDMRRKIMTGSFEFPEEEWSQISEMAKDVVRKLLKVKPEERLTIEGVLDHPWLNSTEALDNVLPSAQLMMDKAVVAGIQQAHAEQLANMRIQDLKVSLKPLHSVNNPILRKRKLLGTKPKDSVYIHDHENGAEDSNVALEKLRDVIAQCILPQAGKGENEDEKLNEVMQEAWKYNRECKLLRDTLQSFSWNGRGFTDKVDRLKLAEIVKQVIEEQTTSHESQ", "from_the_text": "as §1"}, "MEK6": {"biological_target": "T4, MEK6 (Homo sapiens, UniProt P52564)", "T4 construct": "gene MAP2K6", "T4 sequence (P52564 whole entry)": "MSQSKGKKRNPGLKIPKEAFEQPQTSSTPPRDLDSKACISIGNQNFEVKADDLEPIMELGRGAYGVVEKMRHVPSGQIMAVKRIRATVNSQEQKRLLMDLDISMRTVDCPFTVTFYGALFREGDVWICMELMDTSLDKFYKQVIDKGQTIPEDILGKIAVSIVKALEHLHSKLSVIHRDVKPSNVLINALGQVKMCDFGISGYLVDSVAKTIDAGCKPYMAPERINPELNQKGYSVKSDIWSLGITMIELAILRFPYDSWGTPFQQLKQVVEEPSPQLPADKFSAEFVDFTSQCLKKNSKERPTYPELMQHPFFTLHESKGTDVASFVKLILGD", "from_the_text": "as §1"}, "MST2": {"biological_target": "T5, MST2 (Homo sapiens, UniProt Q13188)", "T5 construct": "gene STK3", "from_the_text": "as §1"}, "MST3": {"biological_target": "T6, MST3 (Homo sapiens, UniProt Q9Y6E0)", "T6 construct": "gene STK24", "from_the_text": "as §1"}, "NEK10": {"biological_target": "NEK10 (Homo sapiens, UniProt Q6ZWH5)", "sequence (Q6ZWH5 whole entry)": "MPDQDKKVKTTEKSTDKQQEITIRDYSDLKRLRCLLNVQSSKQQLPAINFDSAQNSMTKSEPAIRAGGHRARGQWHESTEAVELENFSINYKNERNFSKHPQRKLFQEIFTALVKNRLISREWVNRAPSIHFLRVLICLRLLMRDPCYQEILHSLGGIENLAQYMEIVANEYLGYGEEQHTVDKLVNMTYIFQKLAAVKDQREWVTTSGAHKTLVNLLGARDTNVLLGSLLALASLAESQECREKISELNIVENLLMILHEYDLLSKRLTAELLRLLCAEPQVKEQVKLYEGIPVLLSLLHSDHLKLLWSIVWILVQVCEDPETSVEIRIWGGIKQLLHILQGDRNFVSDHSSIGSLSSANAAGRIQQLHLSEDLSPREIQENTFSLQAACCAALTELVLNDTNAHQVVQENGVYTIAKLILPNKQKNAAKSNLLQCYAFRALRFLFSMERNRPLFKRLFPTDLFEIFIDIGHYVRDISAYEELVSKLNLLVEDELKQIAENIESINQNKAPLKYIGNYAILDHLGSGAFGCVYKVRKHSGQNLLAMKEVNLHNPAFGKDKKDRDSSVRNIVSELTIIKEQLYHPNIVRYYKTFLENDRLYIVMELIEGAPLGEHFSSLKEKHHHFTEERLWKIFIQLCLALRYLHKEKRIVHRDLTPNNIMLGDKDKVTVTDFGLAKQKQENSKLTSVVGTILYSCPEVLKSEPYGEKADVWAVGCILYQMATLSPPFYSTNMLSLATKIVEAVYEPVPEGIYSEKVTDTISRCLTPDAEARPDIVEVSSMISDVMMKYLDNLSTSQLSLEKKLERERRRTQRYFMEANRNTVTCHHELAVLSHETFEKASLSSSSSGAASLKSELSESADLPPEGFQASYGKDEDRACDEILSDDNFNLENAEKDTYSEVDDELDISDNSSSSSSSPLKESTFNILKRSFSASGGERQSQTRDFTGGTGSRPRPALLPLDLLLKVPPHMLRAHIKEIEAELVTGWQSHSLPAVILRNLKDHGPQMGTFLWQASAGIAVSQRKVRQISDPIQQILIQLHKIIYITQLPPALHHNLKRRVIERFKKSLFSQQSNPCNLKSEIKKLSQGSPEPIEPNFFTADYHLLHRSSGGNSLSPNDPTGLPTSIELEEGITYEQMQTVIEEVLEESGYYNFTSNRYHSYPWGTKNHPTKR", "from_the_text": "as §1"}, "PHKG2": {"biological_target": "PHKG2 (Homo sapiens, UniProt P15735)", "from_the_text": "as §1"}, "PIP5K2C": {"biological_target": "T7, PIP5K2C (Homo sapiens, UniProt Q8TBX8)", "T7 construct": "gene PIP4K2C", "T7 sequence (Q8TBX8 whole entry)": "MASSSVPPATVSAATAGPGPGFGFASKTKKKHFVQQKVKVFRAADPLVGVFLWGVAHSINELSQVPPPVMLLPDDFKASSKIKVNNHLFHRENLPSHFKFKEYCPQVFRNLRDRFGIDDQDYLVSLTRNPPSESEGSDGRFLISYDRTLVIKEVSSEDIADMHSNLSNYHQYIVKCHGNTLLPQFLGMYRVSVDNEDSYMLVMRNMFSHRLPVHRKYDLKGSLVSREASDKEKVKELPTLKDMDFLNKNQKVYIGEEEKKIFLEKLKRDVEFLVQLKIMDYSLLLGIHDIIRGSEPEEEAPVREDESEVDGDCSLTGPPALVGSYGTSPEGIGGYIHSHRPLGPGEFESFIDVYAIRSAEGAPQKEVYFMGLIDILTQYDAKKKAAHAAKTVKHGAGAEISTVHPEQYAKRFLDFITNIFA", "from_the_text": "as §1"}, "PLK4": {"biological_target": "PLK4 (Homo sapiens, UniProt O00444)", "from_the_text": "as §1"}, "RIOK2": {"biological_target": "RIOK2 (Homo sapiens, UniProt Q9BVS4)", "from_the_text": "as §1"}, "[2]": {"biological_target": "T8, RSK1(Kin.Dom.2-C-terminal) (Homo sapiens, UniProt Q15418)", "T8 construct": "gene RPS6KA1; Kin.Dom.2-C-terminal", "from_the_text": "as §1"}, "SRPK3": {"biological_target": "SRPK3 (Homo sapiens, UniProt Q9UPE1)", "from_the_text": "as §1"}, "SgK110": {"biological_target": "T9, SgK110 (Homo sapiens, UniProt P0C264)", "T9 construct": "gene SBK3", "T9 sequence (P0C264 whole entry)": "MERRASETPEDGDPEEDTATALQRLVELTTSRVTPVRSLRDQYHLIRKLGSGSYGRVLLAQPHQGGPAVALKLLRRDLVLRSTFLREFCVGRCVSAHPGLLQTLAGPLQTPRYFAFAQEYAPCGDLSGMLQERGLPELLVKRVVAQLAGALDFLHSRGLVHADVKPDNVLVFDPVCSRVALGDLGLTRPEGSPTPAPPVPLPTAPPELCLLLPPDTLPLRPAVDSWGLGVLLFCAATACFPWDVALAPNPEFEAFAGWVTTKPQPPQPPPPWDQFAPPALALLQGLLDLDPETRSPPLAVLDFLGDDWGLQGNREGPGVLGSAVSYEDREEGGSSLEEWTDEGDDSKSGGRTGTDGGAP", "from_the_text": "as §1"}, "TNIK": {"biological_target": "TNIK (Homo sapiens, UniProt Q9UKE5)", "from_the_text": "as §1"}, "TRKA": {"biological_target": "T10, TRKA (Homo sapiens, UniProt P04629)", "T10 construct": "gene NTRK1", "from_the_text": "as §1"}, "TSSK3": {"biological_target": "TSSK3 (Homo sapiens, UniProt Q96PN8)", "from_the_text": "as §1"}, "WNK2": {"biological_target": "WNK2 (Homo sapiens, UniProt Q9Y3S1)", "sequence (Q9Y3S1 whole entry)": "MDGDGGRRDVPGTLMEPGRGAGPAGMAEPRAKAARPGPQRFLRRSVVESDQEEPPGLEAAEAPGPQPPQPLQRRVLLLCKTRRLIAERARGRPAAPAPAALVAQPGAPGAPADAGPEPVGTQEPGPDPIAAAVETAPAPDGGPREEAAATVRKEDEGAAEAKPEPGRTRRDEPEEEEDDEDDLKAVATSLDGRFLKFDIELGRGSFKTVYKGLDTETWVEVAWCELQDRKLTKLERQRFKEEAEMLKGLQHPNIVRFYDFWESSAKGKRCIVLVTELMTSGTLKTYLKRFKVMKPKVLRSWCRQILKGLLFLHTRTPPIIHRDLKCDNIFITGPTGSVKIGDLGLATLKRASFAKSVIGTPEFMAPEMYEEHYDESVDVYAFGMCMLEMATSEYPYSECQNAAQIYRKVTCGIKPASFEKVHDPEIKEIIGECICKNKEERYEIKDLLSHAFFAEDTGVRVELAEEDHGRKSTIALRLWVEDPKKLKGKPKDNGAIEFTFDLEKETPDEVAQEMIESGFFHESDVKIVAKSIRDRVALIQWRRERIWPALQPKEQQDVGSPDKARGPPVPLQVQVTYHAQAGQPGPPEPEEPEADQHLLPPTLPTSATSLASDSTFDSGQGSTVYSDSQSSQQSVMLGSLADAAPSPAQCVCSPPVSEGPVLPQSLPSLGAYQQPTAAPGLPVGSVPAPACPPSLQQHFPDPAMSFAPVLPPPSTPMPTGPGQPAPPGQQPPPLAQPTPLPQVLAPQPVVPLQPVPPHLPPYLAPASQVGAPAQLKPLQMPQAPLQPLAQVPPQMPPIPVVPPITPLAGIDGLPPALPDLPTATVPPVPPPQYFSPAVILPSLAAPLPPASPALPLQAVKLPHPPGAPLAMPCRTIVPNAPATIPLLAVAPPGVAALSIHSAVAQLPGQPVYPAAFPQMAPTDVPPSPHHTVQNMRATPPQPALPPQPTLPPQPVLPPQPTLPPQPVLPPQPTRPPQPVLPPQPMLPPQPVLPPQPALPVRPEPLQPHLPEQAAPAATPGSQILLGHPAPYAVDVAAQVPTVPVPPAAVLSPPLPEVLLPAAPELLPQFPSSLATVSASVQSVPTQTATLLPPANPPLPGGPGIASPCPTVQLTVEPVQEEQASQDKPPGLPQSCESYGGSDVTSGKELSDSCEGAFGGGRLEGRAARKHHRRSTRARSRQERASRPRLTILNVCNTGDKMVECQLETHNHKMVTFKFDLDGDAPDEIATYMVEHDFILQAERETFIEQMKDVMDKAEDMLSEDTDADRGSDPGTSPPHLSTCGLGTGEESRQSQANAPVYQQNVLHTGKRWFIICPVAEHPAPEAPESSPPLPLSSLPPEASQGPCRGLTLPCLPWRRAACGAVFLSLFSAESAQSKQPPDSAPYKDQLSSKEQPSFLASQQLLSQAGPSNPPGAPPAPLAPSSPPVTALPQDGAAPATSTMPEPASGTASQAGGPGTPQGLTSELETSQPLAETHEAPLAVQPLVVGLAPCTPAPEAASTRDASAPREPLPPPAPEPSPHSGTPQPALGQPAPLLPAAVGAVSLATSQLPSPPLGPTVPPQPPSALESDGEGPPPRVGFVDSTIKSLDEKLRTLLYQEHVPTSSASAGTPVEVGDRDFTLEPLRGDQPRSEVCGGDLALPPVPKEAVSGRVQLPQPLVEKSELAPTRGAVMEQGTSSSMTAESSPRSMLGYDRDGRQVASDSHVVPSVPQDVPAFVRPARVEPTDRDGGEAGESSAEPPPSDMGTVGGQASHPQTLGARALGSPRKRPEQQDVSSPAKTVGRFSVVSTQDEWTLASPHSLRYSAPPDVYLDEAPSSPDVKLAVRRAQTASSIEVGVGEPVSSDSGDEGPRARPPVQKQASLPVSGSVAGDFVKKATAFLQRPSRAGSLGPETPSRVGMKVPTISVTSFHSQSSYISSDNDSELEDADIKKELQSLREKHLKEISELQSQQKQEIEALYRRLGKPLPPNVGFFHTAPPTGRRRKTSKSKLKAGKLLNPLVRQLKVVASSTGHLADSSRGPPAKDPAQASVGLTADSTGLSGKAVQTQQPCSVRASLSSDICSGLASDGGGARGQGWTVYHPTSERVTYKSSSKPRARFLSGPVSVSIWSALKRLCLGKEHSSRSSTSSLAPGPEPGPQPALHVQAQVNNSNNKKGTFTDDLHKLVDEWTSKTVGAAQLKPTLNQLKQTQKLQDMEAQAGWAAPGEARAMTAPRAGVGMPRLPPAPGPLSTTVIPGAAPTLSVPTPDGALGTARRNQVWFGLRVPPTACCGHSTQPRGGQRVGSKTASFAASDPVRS", "from_the_text": "as §1"}}}
{"smiles": "Cn1c(=O)[nH]c2ccc(-c3cccc(C(=O)NC4CCn5ccnc5C4)c3)cc21", "note": "(stereo not drawn) [Z36-MP5]", "values": [{"measurement": "remaining binding at 1 µM", "setting": "[1]", "result": 85, "unit": "%"}, {"measurement": "remaining binding at 1 µM", "setting": "BRSK1", "result": 92, "unit": "%"}, {"measurement": "remaining binding at 1 µM", "setting": "CAMKK1", "result": 39, "unit": "%"}, {"measurement": "remaining binding at 1 µM", "setting": "CDC2L5", "result": 55, "unit": "%"}, {"measurement": "remaining binding at 1 µM", "setting": "DAPK1", "result": 99, "unit": "%"}, {"measurement": "remaining binding at 1 µM", "setting": "GRK2", "result": 83, "unit": "%"}, {"measurement": "remaining binding at 1 µM", "setting": "JNK3", "result": 100, "unit": "%"}, {"measurement": "remaining binding at 1 µM", "setting": "LRRK2(G2019S)", "result": 59, "unit": "%"}, {"measurement": "remaining binding at 1 µM", "setting": "MAPKAPK5", "result": 63, "unit": "%"}, {"measurement": "remaining binding at 1 µM", "setting": "MEK6", "result": 99, "unit": "%"}, {"measurement": "remaining binding at 1 µM", "setting": "MST2", "result": 93, "unit": "%"}, {"measurement": "remaining binding at 1 µM", "setting": "MST3", "result": 96, "unit": "%"}, {"measurement": "remaining binding at 1 µM", "setting": "NEK10", "result": 50, "unit": "%"}, {"measurement": "remaining binding at 1 µM", "setting": "PHKG2", "result": 83, "unit": "%"}, {"measurement": "remaining binding at 1 µM", "setting": "PIP5K2C", "result": 80, "unit": "%"}, {"measurement": "remaining binding at 1 µM", "setting": "PLK4", "result": 31, "unit": "%"}, {"measurement": "remaining binding at 1 µM", "setting": "RIOK2", "result": 84, "unit": "%"}, {"measurement": "remaining binding at 1 µM", "setting": "[2]", "result": 98, "unit": "%"}, {"measurement": "remaining binding at 1 µM", "setting": "SRPK3", "result": 51, "unit": "%"}, {"measurement": "remaining binding at 1 µM", "setting": "SgK110", "result": 97, "unit": "%"}, {"measurement": "remaining binding at 1 µM", "setting": "TNIK", "result": 98, "unit": "%"}, {"measurement": "remaining binding at 1 µM", "setting": "TRKA", "result": 67, "unit": "%"}, {"measurement": "remaining binding at 1 µM", "setting": "TSSK3", "result": 42, "unit": "%"}, {"measurement": "remaining binding at 1 µM", "setting": "WNK2", "result": 63, "unit": "%"}]}
